According to ChEMBL document CHEMBL6127114, “Discovery of Bis-imidazolecarboxamide Derivatives as Novel, Potent, and Selective TNIK Inhibitors for the Treatment of Idiopathic Pulmonary Fibrosis” (J Med Chem, 2024):
In brackets after ≈: the same amount, converted by molar mass.

Assays:
[1] = biological target: T1, TRAF2 and NCK-interacting protein kinase (Homo sapiens, UniProt Q9UKE5)
[2] = system: LX-2; assay: cells; conditions: Homo sapiens
[3] = system: LX-2; assay: cells; conditions: Homo sapiens; remark: listed apart in the source
[4] = in vitro; conditions: human, lx-2
[5] = Metabolic stability in human liver microsomes assessed as intrinsic clearance preincubated for 60 mins followed by NADPH addition and measured after 5 to 60 mins by LC-MS/MS analysis; format: ADME, Microsome; conditions: time 65-120 min, read-out: CLH
[6] = Metabolic stability in mouse liver microsomes assessed as intrinsic clearance preincubated for 60 mins followed by NADPH addition and measured after 5 to 60 mins by LC-MS/MS analysis; format: ADME, Microsome; conditions: time 65-120 min, read-out: CLH
[7] = physchem; conditions: buffer, pH 7.4
[8] = Apparent permeability in human Caco-2 cells; format: ADME, cell-based
[9] = Inhibition of fibronectin-1 protein expression in human Primary bronchial epithelial cell; format: functional, cell-based
[10] = system: Mus musculus; assay: Anti-hepatic fibrosis activity in CCL4-induced male C57BL6/J mouse hepatic fibrosis model assessed as change in body weight at 3 mg/kg, po meausred after 2 weeks (reference value: -1.8%); format: functional
[11] = system: Mus musculus; assay: Anti-hepatic fibrosis activity in CCL4-induced male C57BL6/J mouse hepatic fibrosis model assessed as change in body weight at 10 mg/kg, po meausred after 2 weeks (reference value: -1.8%); format: functional
[12] = biological target: T2, Muscarinic acetylcholine receptor M1 (Homo sapiens, UniProt P11229); assay: Inhibition of human CHRM1 by Eurofins DiscoverX method
T2 sequence (P11229 whole entry): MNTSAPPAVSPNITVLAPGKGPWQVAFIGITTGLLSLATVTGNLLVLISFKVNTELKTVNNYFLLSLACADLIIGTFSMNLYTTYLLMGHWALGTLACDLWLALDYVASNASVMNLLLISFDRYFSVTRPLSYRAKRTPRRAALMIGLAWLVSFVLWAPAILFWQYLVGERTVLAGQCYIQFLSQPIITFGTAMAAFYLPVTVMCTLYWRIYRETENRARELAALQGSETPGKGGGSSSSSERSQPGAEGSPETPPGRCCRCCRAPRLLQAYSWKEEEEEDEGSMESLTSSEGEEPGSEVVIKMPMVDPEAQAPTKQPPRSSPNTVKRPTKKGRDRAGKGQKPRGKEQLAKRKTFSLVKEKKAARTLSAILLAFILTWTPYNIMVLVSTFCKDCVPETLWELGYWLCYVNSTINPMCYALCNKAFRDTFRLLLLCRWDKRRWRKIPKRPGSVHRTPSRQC

[13] = biological target: T1, TRAF2 and NCK-interacting protein kinase; remark: listed apart in the source

T1 sequence (Q9UKE5 whole entry): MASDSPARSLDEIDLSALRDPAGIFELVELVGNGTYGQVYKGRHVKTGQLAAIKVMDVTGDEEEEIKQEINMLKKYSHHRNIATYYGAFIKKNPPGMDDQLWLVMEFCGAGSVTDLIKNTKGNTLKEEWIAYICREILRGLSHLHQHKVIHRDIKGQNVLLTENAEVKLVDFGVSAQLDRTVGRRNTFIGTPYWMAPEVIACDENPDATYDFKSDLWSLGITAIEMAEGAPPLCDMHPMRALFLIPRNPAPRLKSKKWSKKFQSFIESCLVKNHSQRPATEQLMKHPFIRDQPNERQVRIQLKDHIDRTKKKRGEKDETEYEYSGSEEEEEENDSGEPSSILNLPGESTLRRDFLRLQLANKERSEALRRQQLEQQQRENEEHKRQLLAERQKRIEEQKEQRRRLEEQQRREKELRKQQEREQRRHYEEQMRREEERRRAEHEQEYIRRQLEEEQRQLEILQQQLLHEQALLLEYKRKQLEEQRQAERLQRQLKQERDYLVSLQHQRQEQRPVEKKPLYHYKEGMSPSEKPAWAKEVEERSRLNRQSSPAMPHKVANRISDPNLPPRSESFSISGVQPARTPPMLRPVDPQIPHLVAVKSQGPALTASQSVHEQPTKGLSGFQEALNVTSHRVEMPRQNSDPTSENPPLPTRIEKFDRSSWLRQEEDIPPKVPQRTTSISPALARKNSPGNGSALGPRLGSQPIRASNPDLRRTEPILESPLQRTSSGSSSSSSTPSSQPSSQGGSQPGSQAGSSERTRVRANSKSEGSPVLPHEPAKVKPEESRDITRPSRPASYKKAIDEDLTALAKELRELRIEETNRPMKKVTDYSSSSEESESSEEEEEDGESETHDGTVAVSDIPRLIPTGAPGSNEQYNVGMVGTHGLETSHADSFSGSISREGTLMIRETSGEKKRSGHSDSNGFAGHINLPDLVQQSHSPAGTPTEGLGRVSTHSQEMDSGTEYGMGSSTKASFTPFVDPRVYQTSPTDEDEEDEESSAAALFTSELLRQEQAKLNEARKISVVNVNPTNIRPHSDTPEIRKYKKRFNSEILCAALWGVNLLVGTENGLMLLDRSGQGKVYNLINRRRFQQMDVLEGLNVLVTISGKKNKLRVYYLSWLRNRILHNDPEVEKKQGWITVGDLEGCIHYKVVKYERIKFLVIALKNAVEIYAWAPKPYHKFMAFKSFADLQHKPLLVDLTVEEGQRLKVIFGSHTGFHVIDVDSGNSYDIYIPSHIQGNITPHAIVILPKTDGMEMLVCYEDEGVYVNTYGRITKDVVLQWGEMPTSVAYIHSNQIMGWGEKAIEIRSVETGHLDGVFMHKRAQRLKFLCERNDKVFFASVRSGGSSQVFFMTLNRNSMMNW

Compound | IC50 [1] | IC50 [2] | IC50 [3] | IC50 at 72 h [4] | also measured
CC(C)n1cnc(-c2ccc(F)cc2)c1-c1nc(C(=O)Nc2ccc(N(CCO)CCO)cc2)c[nH]1 | 0.0791 µM | 0.904 µM | 0.839 µM | > 100 µM | –
CC(C)n1cnc(-c2ccc(F)cc2)c1-c1nc(C(=O)Nc2ccc(N3CC4CCC(C3)N4C)cc2)c[nH]1 | 0.004 µM | 0.077 µM | 0.042 µM | 22.6 µM | –
CC1CN(c2ccc(NC(=O)c3c[nH]c(-c4c(-c5ccc(F)cc5)ncn4C(C)C)n3)cc2)CC(C)N1C (stereo not given) | 0.018 µM | 0.071 µM | 0.071 µM | 12.3 µM | –
CC(C)n1cnc(-c2ccc(F)cc2)c1-c1cccc(C(=O)Nc2ccc(N3CCN(C)CC3)cc2)n1 | 0.0059 µM | – | – | – | microsomal CLint [5]: 119 µL/min/mg; microsomal CLint [6]: 122 µL/min/mg; solubility kinetic at 24 h [7]: 105 µM (≈ 52.4 µg/mL)
CC(C)n1cnc(-c2ccc(F)cc2)c1-c1nc(C(=O)Nc2ccc(C(=O)O)cc2)c[nH]1 | 0.149 µM | > 10 µM | > 10 µM | > 100 µM | Papp [8]: 0.07 ×10⁻⁶ cm/s
CC(C)n1cnc(-c2ccc(F)cc2)c1-c1ccc(C(=O)Nc2ccc(N3CCN(C)CC3)cc2)o1 | 0.0105 µM | – | – | – | microsomal CLint [5]: > 150 µL/min/mg; microsomal CLint [6]: > 150 µL/min/mg; solubility kinetic at 24 h [7]: 40 µM (≈ 19.5 µg/mL)
CC(C)n1cnc(-c2ccc(F)cc2)c1-c1ccc(C(=O)Nc2ccc(CCO)cc2)o1 | 0.0402 µM | – | – | – | microsomal CLint [5]: > 150 µL/min/mg; microsomal CLint [6]: > 150 µL/min/mg; solubility kinetic at 24 h [7]: < 2 µM
CC(C)n1cnc(-c2ccc(F)cc2)c1-c1nc(C(=O)Nc2ccc(N3CCN(CC(F)(F)F)CC3)cc2)c[nH]1 | 0.042 µM | 0.125 µM | 0.519 µM | > 100 µM | –
CC(C)n1cnc(-c2ccc(F)cc2)c1-c1nc(C(=O)Nc2ccc(CCO)cc2)c[nH]1 | 0.0095 µM | 0.264 µM | 0.306 µM | > 100 µM | –
CC(C)n1cnc(-c2ccc(F)cc2)c1-c1nc(C(=O)Nc2ccc(N3CCN(C)C(=O)C3)cc2)c[nH]1 | 0.047 µM | 0.713 µM | 0.898 µM | > 100 µM | –
CC(C)n1cnc(-c2ccc(F)cc2)c1-c1nc(C(=O)Nc2ccc(N3CCN(CCO)CC3)cc2)c[nH]1 | 0.0211 µM | 0.162 µM | 0.123 µM | > 100 µM | –
CC(C)n1cnc(-c2ccc(F)cc2)c1-c1nc(C(=O)Nc2ccc(CCCCC(=O)O)cc2)c[nH]1 | 0.051 µM | > 10 µM | > 10 µM | > 100 µM | Papp [8]: 0.07 ×10⁻⁶ cm/s
CC(C)n1cnc(-c2ccc(F)cc2)c1-c1nc(C(=O)Nc2ccc(N3CCN(C)CC3)cc2)c[nH]1 | – | – | – | – | IC50 [9]: 0.25 µM; Activity [10]: -0.671%; Activity [11]: 6.065%; IC50 [12]: 8.4 µM
CC(C)n1cnc(-c2ccc(F)c(F)c2)c1-c1nc(C(=O)Nc2ccc(N3CCN(C)CC3)cc2)c[nH]1 | 0.051 µM | – | – | – | –
CC(=O)N1CCN(c2ccc(NC(=O)c3c[nH]c(-c4c(-c5ccc(F)cc5)ncn4C(C)C)n3)cc2)CC1 | 0.006 µM | 0.572 µM | 0.144 µM | > 100 µM | –
CC(C)n1cnc(-c2ccc(F)cc2)c1-c1cccc(C(=O)Nc2ccc(CCO)cc2)n1 | 0.0057 µM | – | – | – | microsomal CLint [5]: 161 µL/min/mg; microsomal CLint [6]: 124 µL/min/mg; solubility kinetic at 24 h [7]: < 2 µM
CC(C)n1cnc(-c2ccc(F)cc2)c1-c1nc(C(=O)Nc2ccc(N3CCN(S(N)(=O)=O)CC3)cc2)c[nH]1 | 0.0106 µM | – | – | – | solubility kinetic at 24 h [7]: < 2 µM
CC(C)n1cnc(-c2ccc(F)cc2)c1-c1nc(C(=O)Nc2ccc(N3CCN(C(N)=O)CC3)cc2)c[nH]1 | 0.199 µM | – | – | – | –
CC(C)n1cnc(-c2ccc(F)cc2)c1-c1nc(C(=O)Nc2ccc(CCC(=O)O)cc2)c[nH]1 | 0.0463 µM | > 10 µM | > 10 µM | > 100 µM | Papp [8]: 0.07 ×10⁻⁶ cm/s
CC(C)n1cnc(-c2ccc(F)cc2)c1-c1cccc(C(=O)Nc2ccc(N3CCN(CCO)CC3)cc2)n1 | 0.0052 µM | – | – | – | microsomal CLint [5]: 141 µL/min/mg; microsomal CLint [6]: 69.5 µL/min/mg; solubility kinetic at 24 h [7]: 5.3 µM (≈ 2.8 µg/mL)
CC(C)n1cnc(-c2ccc(F)cc2)c1-c1nc(C(=O)Nc2ccc(N3CCNCC3)cc2)c[nH]1 | 0.0111 µM | 0.065 µM | 0.081 µM | 40.5 µM | –
CC(C)n1cnc(-c2ccc(F)cc2)c1-c1nc(C(=O)Nc2ccc(N3CC[N+](C)([O-])CC3)cc2)c[nH]1 | 0.0343 µM | > 10 µM | 0.115 µM | > 100 µM | –
CC(C)n1cnc(-c2ccc(F)cc2)c1-c1cccc(C(=O)Nc2ccc(CCC(=O)O)cc2)n1 | 0.0057 µM | – | – | – | microsomal CLint [5]: < 9.6 µL/min/mg; microsomal CLint [6]: < 9.6 µL/min/mg; solubility kinetic at 24 h [7]: < 2 µM
CC(C)n1cnc(-c2ccc(Cl)cc2)c1-c1nc(C(=O)Nc2ccc(N3CCN(C)CC3)cc2)c[nH]1 | 0.0713 µM | – | – | – | –
CC(C)n1cnc(-c2ccc(C(F)(F)F)cc2)c1-c1nc(C(=O)Nc2ccc(N3CCN(C)CC3)cc2)c[nH]1 | > 10 µM | – | – | – | –
Cn1ccc2cc(-c3ccc4c(c3)SCCN(Cc3ccc(F)cc3)C4=O)cnc21 | – | – | – | – | IC50 [13]: 0.026 µM
